Data reported in patent US7109243B2 (IRM LLC, priority 2003, dated 2006).

Tests used:
Cathepsin K = molecular target: T1, Cathepsin K (Homo sapiens, UniProt P43235); test: Cathepsin K inhibition assay (fluorogenic peptide substrate); selectivity ratio vs cathepsin S; format: biochemical; conditions: ratio of cathepsin K inhibition constant to cathepsin S inhibition constant; Table II
T1 sequence (P43235 115-329): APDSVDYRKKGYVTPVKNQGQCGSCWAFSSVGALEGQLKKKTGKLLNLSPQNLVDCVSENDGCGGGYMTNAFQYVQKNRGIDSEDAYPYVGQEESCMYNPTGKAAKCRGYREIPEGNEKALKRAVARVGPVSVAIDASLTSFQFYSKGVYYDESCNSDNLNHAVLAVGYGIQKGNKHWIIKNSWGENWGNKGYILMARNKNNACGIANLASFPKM
How it was run: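 Inhibition constants for competitive inhibitors come from apparent values fitted to enzyme progress curves. Substrate, acetyl-Lys-His-Pro-Lys-aminocarbamoylcoumarin (40 μM final), starts the reaction; fluorescence rise read at 380 nm excitation, 450 nm emission. Selectivity ratio: other cathepsin constant over cathepsin S constant.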

Cathepsin S = Cathepsin S (Homo sapiens, UniProt P25774); test: Cathepsin S inhibition assay (fluorogenic peptide substrate); format: biochemical; conditions: Table II, compounds of Formula I; read-out: Ki Cat. S
Cathepsin S, sequence (P25774 115-331, species assumed): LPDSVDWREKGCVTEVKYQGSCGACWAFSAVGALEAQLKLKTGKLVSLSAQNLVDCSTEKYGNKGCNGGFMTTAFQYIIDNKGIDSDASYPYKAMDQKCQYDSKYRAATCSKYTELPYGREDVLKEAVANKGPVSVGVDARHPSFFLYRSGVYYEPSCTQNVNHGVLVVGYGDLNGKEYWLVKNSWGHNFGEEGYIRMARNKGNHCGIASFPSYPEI
How it was run: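 Ki values come from nonlinear fitting of inhibited hydrolysis rates, taking free and total inhibitor concentrations as equal. Rates measured as rising fluorescence at 380/450 nm after reaction start with 50 μM final acetyl-HPVK-aminocarbamoylcoumarin.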

SMILES | Selectivity for Cat. S over Cat. K (Cathepsin K) | Ki (Cathepsin S) [nM]
CC(C(=O)NC(CC1CCCCC1)C(=O)NCCNc1ccc(F)cc1)c1ccc(F)cc1 (mixture of isomers) [Compound 320, N-(S)-{2-cyclohexyl-1-[2-(4-fluoro-phenylamino)-ethylcarbamoyl]-ethyl}-2-(R,S)-(4-fluoro-phenyl)-propionamide] | ++ (++, >100) | < 100
COc1ccc(NCCNC(=O)[C@H](CCC2CCCCC2)NC(=O)c2ccc3ncsc3c2)cc1 [Compound 137, (S)-Benzothiazole-6-carboxylic acid {3-cyclohexyl-1-[2-(4-methoxy-phenylamino)-ethylcarbamoyl]-propyl}-amide] | +++ (+++, >1000) | < 100
COc1ccc(NCCNC(=O)[C@H](CC2CCCCC2)NC(=O)c2ccc(Br)s2)cc1 [Compound 182, (S)-5-Bromo-thiophene-2-carboxylic acid {2-cyclohexyl-1-[2-(4-methoxy-phenylamino)-ethylcarbamoyl]-ethyl}-amide] | + (+, >10) | < 100
O=C(NCCNc1ccc(OC(F)(F)F)cc1)[C@H](CC1CCCCC1)NC(=O)[C@@H](O)c1ccccc1 [Compound 58, 3-Cyclohexyl-2-(S)-(2-(S)-hydroxy-2-phenyl-acetylamino)-N-[2-(4-trifluoromethoxy-phenylamino)-ethyl]-propionamide] | ++ (++, >100) | < 100
COc1ccc(NCCNC(=O)[C@H](CC2CCCCC2)NC(=O)c2cc(Br)cc(Br)c2)cc1 [Compound 178, (S)-3,5-Dibromo-N-{2-cyclohexyl-1-[2-(4-methoxy-phenylamino)-ethylcarbamoyl]-ethyl}-benzamide] | +++ (+++, >1000) | < 100
O=C(N[C@@H](CC1CCCCC1)C(=O)NCCNc1ccc(OC(F)(F)F)cc1)c1ccoc1 [Compound 26] | ++ (++, >100) | < 100
CS(=O)(=O)c1ccc(C(=O)N[C@@H](CC2CCCCC2)C(=O)NCCNc2ccc(F)cc2)s1 [Compound 293, 5-Methanesulfonyl-thiophene-2-carboxylic acid (S)-{2-cyclohexyl-1-[2-(4-fluoro-phenylamino)-ethylcarbamoyl]-ethyl}-amide] | ++ (++, >100) | < 100
COc1ccc(NCCNC(=O)[C@H](Cc2ccc(-c3ccccc3[N+](=O)[O-])cc2)NC(=O)c2cccc(C)c2)cc1 [Compound 273, (S)-N-[1-[2-(4-Methoxy-phenylamino)-ethylcarbamoyl]-2-(2′-nitro-biphenyl-4-yl)-ethyl]-3-methyl-benzamide] | ++ (++, >100) | < 1000
COc1cc(OC)nc(Oc2cccc(C(=O)N[C@@H](CC3CCCCC3)C(=O)NCCNc3ccc(OC(F)(F)F)cc3)c2)n1 [Compound 73, N-(S)-{2-cyclohexyl-1-[2-(4-trifluoromethoxy-phenylamino)-ethylcarbamoyl]-ethyl}-3-(4,6-dimethoxy-pyrimidin-2-yloxy)-benzamide] | ++ (++, >100) | < 100
COc1ccc(NCCNC(=O)[C@H](CCCC2CCCCC2)NC(=O)c2cccc(C)c2)cc1 [Compound 203, (S)-N-{4-Cyclohexyl-1-[2-(4-methoxy-phenylamino)-ethylcarbamoyl]-butyl}-3-methyl-benzamide] | +++ (+++, >1000) | < 100
O=C(N[C@@H](CC1CCCCC1)C(=O)NCCNc1ccc(OC(F)(F)F)cc1)c1ccc(-c2ccc(C(F)(F)F)cc2)o1 [Compound 213, (S)-5-(4-Trifluoromethyl-phenyl)-furan-2-carboxylic acid {2-cyclohexyl-1-[2-(4-trifluoromethoxy-phenylamino)-ethylcarbamoyl]-ethyl}-amide] | +++ (+++, >1000) | < 100
COc1ccc(NCCNC(=O)[C@H](Cc2ccc(-c3cc(OC)ccc3OC)cc2)NC(=O)c2cccc(C)c2)cc1 [Compound 285, (S)-N-{2-(2′,5′-Dimethoxy-biphenyl-4-yl)-1-[2-(4-methoxy-phenylamino)-ethylcarbamoyl]-ethyl}-3-methyl-benzamide] | ++ (++, >100) | < 1000
COc1ccc(NCCNC(=O)[C@H](Cc2ccc(-c3ccc(C#N)cc3)cc2)NC(=O)c2cccc(C)c2)cc1 [Compound 276, (S)-N-{2-(4′-Cyano-biphenyl-4-yl)-1-[2-(4-methoxy-phenylamino)-ethylcarbamoyl]-ethyl}-3-methyl-benzamide] | +++ (+++, >1000) | < 100
COc1ccc(NCCNC(=O)[C@H](CC2CCCCC2)NC(=O)c2ccc(OC)cc2)cc1 [Compound 153, (S)-N-{2-Cyclohexyl-1-[2-(4-methoxy-phenylamino)-ethylcarbamoyl]-ethyl}-4-methoxy-benzamide] | + (+, >10) | < 100
COc1ccc(NCCNC(=O)[C@H](Cc2cccc(C(F)(F)F)c2)NC(=O)c2cccc(C)c2)cc1 [Compound 252, (S)-N-[1-[2-(4-Methoxy-phenylamino)-ethylcarbamoyl]-2-(3-trifluoromethyl-phenyl)-ethyl]-3-methyl-benzamide] | +++ (+++, >1000) | < 100
CCCc1ccc(C(=O)N[C@@H](CC2CCCCC2)C(=O)NCCNc2ccc(OC)cc2)cc1 [Compound 151, (S)-N-{2-Cyclohexyl-1-[2-(4-methoxy-phenylamino)-ethylcarbamoyl]-ethyl}-4-propyl-benzamide] | + (+, >10) | < 100
COc1ccc(NCCNC(=O)[C@H](CC2CCCCC2)NC(=O)c2cc(OC)cc(OC)c2)cc1 [Compound 180, (S)-N-{2-Cyclohexyl-1-[2-(4-methoxy-phenylamino)-ethylcarbamoyl]-ethyl}-3,5-dimethoxy-benzamide] | + (+, >10) | < 100
COc1ccc(NCCNC(=O)C(NC(=O)c2ccc(-c3cccc(C(F)(F)F)c3)o2)c2ccccc2)cc1 (racemic) [Compound 9, (±)-N-((2-(4-methoxyphenylamino)ethylcarbamoyl)(phenyl)-methyl)-5-(3-(trifluoromethyl)phenyl)furan-2-carboxamide] | + (+, >10) | < 1000
COc1ccc(NCCNC(=O)[C@H](CCC2CCCCC2)NC(=O)c2cc3cc(Cl)ccc3[nH]2)cc1 [Compound 131, (S)-5-Chloro-1H-indole-2-carboxylic acid {3-cyclohexyl-1-[2-(4-methoxy-phenylamino)-ethylcarbamoyl]-propyl}-amide] | + (+, >10) | < 10000
COc1ccc(NCCNC(=O)[C@H](Cc2ccc([N+](=O)[O-])cc2)NC(=O)c2cccc(C)c2)cc1 [Compound 244, (S)-N-[1-[2-(4-Methoxy-phenylamino)-ethylcarbamoyl]-2-(4-nitro-phenyl)-ethyl]-3-methyl-benzamide] | +++ (+++, >1000) | < 1000
COc1ccc(NCCNC(=O)C(NC(=O)c2cccc(C)c2)c2ccccc2Cl)cc1 (stereo not drawn) [Compound 216, N-{(2-Chloro-phenyl)-[2-(4-methoxy-phenylamino)-ethylcarbamoyl]-methyl}-3-methyl-benzamide] | +++ (+++, >1000) | < 1000
